{
  "source": "patent US8809347B2",
  "about": "“Bicyclic aryl and bicyclic heteroaryl substituted triazoles useful as AXL inhibitors” (Rigel Pharmaceuticals, Inc., priority 2006, dated 2014)",
  "target": "T1, Axl (Homo sapiens, UniProt P30530)",
  "T1 construct": "Cells: Hela cells; endogenous in cells; host or cells: HeLa cells",
  "T1 sequence (P30530 26-894)": "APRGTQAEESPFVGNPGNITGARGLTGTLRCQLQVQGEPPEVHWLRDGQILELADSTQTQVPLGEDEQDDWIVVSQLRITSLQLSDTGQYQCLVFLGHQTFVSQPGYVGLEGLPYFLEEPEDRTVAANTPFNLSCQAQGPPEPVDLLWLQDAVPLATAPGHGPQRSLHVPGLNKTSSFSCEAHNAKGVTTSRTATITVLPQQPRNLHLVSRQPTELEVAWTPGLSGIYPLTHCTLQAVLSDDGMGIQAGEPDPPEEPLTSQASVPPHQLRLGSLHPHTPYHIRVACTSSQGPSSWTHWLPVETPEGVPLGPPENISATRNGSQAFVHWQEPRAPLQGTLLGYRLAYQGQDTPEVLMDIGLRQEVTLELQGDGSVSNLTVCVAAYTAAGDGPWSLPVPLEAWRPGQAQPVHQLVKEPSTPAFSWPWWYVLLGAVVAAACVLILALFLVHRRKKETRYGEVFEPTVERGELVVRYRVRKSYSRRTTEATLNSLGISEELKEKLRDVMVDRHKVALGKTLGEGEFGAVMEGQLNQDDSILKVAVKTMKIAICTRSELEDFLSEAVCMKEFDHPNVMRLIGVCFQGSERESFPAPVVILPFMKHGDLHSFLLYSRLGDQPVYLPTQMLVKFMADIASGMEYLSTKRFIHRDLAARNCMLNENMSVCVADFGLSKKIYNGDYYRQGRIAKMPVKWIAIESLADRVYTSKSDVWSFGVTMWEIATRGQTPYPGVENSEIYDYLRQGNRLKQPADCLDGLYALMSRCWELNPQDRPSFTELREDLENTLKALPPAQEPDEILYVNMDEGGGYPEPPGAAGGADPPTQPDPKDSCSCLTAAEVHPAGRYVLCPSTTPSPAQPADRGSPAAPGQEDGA",
  "assay": "Phospho-Akt in-cell Western assay (inhibition of Axl activity)",
  "format": "cell-based",
  "conditions": "Hela cells; 1 hr pre-treatment; stimulation by Axl-antibody cross-linking; phospho-Akt chemiluminescence normalized to relative cell number",
  "experimental": "The compounds of the invention were tested in the following assay for their ability to inhibit Axl activity.\nPhospho-Akt in-Cell Western Assay\n• Cell culture plate: 96 well assay plate (Corning 3610), white, clear bottom, tissue-culture treated. • Cells: Hela cells. • Starvation medium: For Axl stimulation: 0.5% FCS (fetal calf serum) in DMEM, plus Axl/Fc (extracellular domain of AXL fused to immunoglobulin Fc region) (R&D, 154-AL) 500 ng/mL. • For EGF (epidermal growth factor) stimulation: 0.5% FCS in DMEM (Dulbecco's modified Eagles medium). • Poly-L-Lysine 0.01% solution (the working solution): […], dilute In PBS (phosphate buffered saline). • Axl antibody cross-linking: • 1st: Mouse anti-Axl (R&D, MAB154). • 2nd: Biotin-SP-conjugated AffiniPure goat anti-mouse IgG (H+ L) (Jackson ImmunoResearch #115-065-003). • Fixing buffer: 4% formaldehyde in PBS. • Wash buffer: 0.1% TritonX-100 in PBS. • Quenching buffer: 3% H2O2, 0.1% Azide in wash buffer, Azide and hydrogen peroxide (H2O2) are added fresh. • Blocking buffer: 5% BSA in TBST (tris buffered saline plus 0.1% Tween 20). • Primary antibody: Rabbit anti-human Phospho-Akt antibody (Cell Signaling 9271): 1×250 diluted in blocking buffer. • Secondary antibody: HRP (horse radish peroxidase)-conjugated Goat anti-Rabbit secondary, stock solution: Jackson ImmunoResearch (Goat anti-Rabbit HRP, #111-035-144) 1:1 diluted in glycerol, store at −20° C. The working solution: 1×2000 dilution of stock in blocking buffer. • Chemiluminescent working solution (Pierce, 37030): SuperSignal ELISA (enzyme linked immunosorbant assay) Pico Chemiluminescent substrate. • Crystal Violet solution: Stock: 2.5% Crystal violet in methanol, filtered and kept at ambient temperature. The working solution: dilute the stock 1:20 with PBS immediately before use. • 10% SDS: working solution: 5% SDS (sodium dodecylsulfate), diluted in PBS Methods: Day 1:\nA 96 well TC (tissue culture treated) plate was coated with 10 μg/mL poly-L-Lysine at 37° C. for 30 min, washed twice with PBS, and air-dried for 5 minutes before cells were added. Hela cells were seeded at 10,000 cells/well and the cells were starved in 100 μL starvation medium containing Axl/Fc for 24 hrs.\nThe cells were pre-treated with test compounds by adding 100 μL of 2× test compound to the starvation medium on the cells. The cells were incubated at 37° C. for 1 hr before stimulation.\nThe cells were stimulated by Axl-antibody cross-linking as follows: A 5× 1st/2nd Axl antibody mixture was made (37.5 μg/mL 1st/100 μg/mL 2nd) in starvation medium and nutated at 4° C. with thorough mixing for 1-2 hours for clustering. The resulting mix was warmed to 37° C. 50 μL of 5× Axl 1st/2nd of antibody cluster was added to the cells and the cells were incubated at 37° C. for 5 min.\nAfter 5 minutes stimulation, the plate was flicked to remove medium and the plate was tapped onto paper towels. Formaldehyde (4.0% in PBS, 100 μL) was added to fix the cells and the cells were incubated at ambient temperature for 20 min without shaking.\nThe cells were washed with a plate washer buffer to remove the formaldehyde solution. The plate was flicked to removed excess wash buffer and tapped onto paper towels. Quenching buffer (100 μL) was added to each well and the cells were incubated at ambient temperature for 20 minutes without shaking.\nThe cells were washed with a plate washer buffer to remove the quenching buffer. Blocking buffer (100 μL) was added and the cells were incubated at ambient temperature for at least an hour with gentle shaking.\nThe cells were washed with a plate washer buffer and diluted primary antibody (50 μL) was added to each well (blocking buffer was added to the negative control wells instead). The plates were incubated overnight at 4° C. with gentle shaking.\nThe wash buffer was removed, diluted secondary antibody (100 μL) was added, and the cells were incubated at ambient temperature for 1 hour with gentle shaking. […]",
  "data": [
    {"compound": "Nc1nc(Nc2ccc(OCCN3CCCC3)cc2)nn1-c1ncnc2c1CCCCCC2", "note": "[Compound 20, 1-(5,6,7,8,9,10-hexahydrocycloocta[d]pyrimidin-4-yl)-N^3-(4-(2-(pyrrolidin-1-yl)ethoxy)phenyl)-1H-1,2,4-triazole-3,5-diamine]", "values": [
      {"measurement": "IC50", "value": "< 1000", "unit": "nM"}
    ]},
    {"compound": "CN1CCN(c2ccc(Nc3nc(N)n(-c4ncnc5c4CCCCCC5)n3)cc2)CC1", "note": "[Compound 21, 1-(5,6,7,8,9,10-hexahydrocycloocta[d]pyrimidin-4-yl)-N^3-(4-(4-methylpiperazin-1-yl)phenyl)-1H-1,2,4-triazole-3,5-diamine]", "values": [
      {"measurement": "IC50", "value": "< 1000", "unit": "nM"}
    ]},
    {"compound": "Nc1nc(Nc2ccc(OCCN3CCCC3)cc2)nn1-c1ccc2c(n1)CCCCCC2", "note": "[Compound 22, 1-(5,6,7,8,9,10-hexahydrocycloocta[b]pyridin-2-yl)-N^3-(4-(2-(pyrrolidin-1-yl)ethoxy)phenyl)-1H-1,2,4-triazole-3,5-diamine]", "values": [
      {"measurement": "IC50", "value": "< 1000", "unit": "nM"}
    ]},
    {"compound": "CN1CCN(c2ccc(Nc3nc(N)n(-c4ccc5c(n4)CCCCCC5)n3)cc2)CC1", "note": "[Compound 23, 1-(5,6,7,8,9,10-hexahydrocycloocta[b]pyridin-2-yl)-N^3-(4-(4-methylpiperazin-1-yl)phenyl)-1H-1,2,4-triazole-3,5-diamine]", "values": [
      {"measurement": "IC50", "value": "< 1000", "unit": "nM"}
    ]},
    {"compound": "Nc1nc(Nc2ccc(N3CCN(C4CC5CCC4C5)CC3)cc2)nn1-c1ncnc2c1CCCCCC2", "note": "(stereo not drawn) [Compound 24, N^3-(4-(4-(bicyclo[2.2.1]heptan-2-yl)piperazin-1-yl)phenyl)-1-(5,6,7,8,9,10-hexahydrocycloocta[d]pyrimidin-4-yl)-1H-1,2,4-triazole-3,5-diamine]", "values": [
      {"measurement": "IC50", "value": "< 1000", "unit": "nM"}
    ]},
    {"compound": "Nc1nc(Nc2ccc(N3CCC(N4CCOCC4)CC3)c(F)c2)nn1-c1ncc2c(n1)CCCCCC2", "note": "[Compound 25, N^3-(3-fluoro-4-(4-morpholinopiperidin-1-yl)phenyl)-1-(5,6,7,8,9,10-hexahydrocycloocta[d]pyrimidin-2-yl)-1H-1,2,4-triazole-3,5-diamine]", "values": [
      {"measurement": "IC50", "value": "1000 to 10000", "unit": "nM"}
    ]},
    {"compound": "Cc1csc2c(-n3nc(Nc4ccc5c(c4)CCCN(C4CCCC4)CC5)nc3N)nc(Cl)nc12", "note": "[Compound 26, 1-(2-chloro-7-methylthieno[3,2-d]pyrimidin-4-yl)-N^3-(3-cyclopentyl-1,2,3,4,5,6-hexahydrobenzo[d]azocin-8-yl)-1H-1,2,4-triazole-3,5-diamine]", "values": [
      {"measurement": "IC50", "value": "< 1000", "unit": "nM"}
    ]},
    {"compound": "COc1cc2ncnc(-n3nc(Nc4ccc5c(c4)CCCN(C4CCCC4)CC5)nc3N)c2cc1OC", "note": "[Compound 27, N^3-(3-cyclopentyl-1,2,3,4,5,6-hexahydro-benzo[d]azocin-8-yl)-1-(6,7-dimethoxy-quinazolin-4-yl)-1H-[1,2,4]triazole-3,5-diamine]", "values": [
      {"measurement": "IC50", "value": "< 1000", "unit": "nM"}
    ]},
    {"compound": "Cc1csc2c(-n3nc(Nc4ccc5c(c4)OCCCCO5)nc3N)nc(Cl)nc12", "note": "[Compound 28, 1-(2-chloro-7-methylthieno[3,2-d]pyrimidin-4-yl)-N^3-(2,3,4,5-tetrahydrobenzo[b][1,4]dioxocin-8-yl)-1H-1,2,4-triazole-3,5-diamine]", "values": [
      {"measurement": "IC50", "value": "< 1000", "unit": "nM"}
    ]},
    {"compound": "Cc1csc2c(-n3nc(Nc4ccc5c(c4)CC(N4CCCC4)CCCC5)nc3N)nc(Cl)nc12", "note": "(stereo not drawn) [Compound 29, 1-(2-chloro-7-methylthieno[3,2-d]pyrimidin-4-yl)-N^3-(9-(pyrrolidin-1-yl)-5,6,7,8,9,10-hexahydrobenzo[8]annulen-2-yl)-1H-1,2,4-triazole-3,5-diamine]", "values": [
      {"measurement": "IC50", "value": "< 1000", "unit": "nM"}
    ]},
    {"compound": "Nc1nc(Nc2ccc3c(c2)CCN(C2CCCC2)CCC3)nn1-c1ccc(C(F)(F)F)cn1", "note": "[Compound 30, N^3-(3-cyclopentyl-1,2,3,4,5,6-hexahydrobenzo[d]azocin-9-yl)-1-(5-(trifluoromethyl)pyridin-2-yl)-1H-1,2,4-triazole-3,5-diamine]", "values": [
      {"measurement": "IC50", "value": "< 1000", "unit": "nM"}
    ]},
    {"compound": "Nc1nc(Nc2ccc3c(c2)CCCN(C2CCCC2)CC3)nn1-c1ncnc2ccc(F)cc12", "note": "[Compound 31, N^3-(3-cyclopentyl-1,2,3,4,5,6-hexahydrobenzo[d]azocin-8-yl)-1-(6-fluoroquinazolin-4-yl)-1H-1,2,4-triazole-3,5-diamine]", "values": [
      {"measurement": "IC50", "value": "< 1000", "unit": "nM"}
    ]},
    {"compound": "Nc1nc(Nc2ccc3c(c2)CCCN(C2CCCC2)CC3)nn1-c1nc2ccccc2s1", "note": "[Compound 32, 1-(benzo[d]thiazol-2-yl)-N^3-(3-cyclopentyl-1,2,3,4,5,6-hexahydrobenzo[d]azocin-8-yl)-1H-1,2,4-triazole-3,5-diamine]", "values": [
      {"measurement": "IC50", "value": "1000 to 10000", "unit": "nM"}
    ]},
    {"compound": "Nc1nc(Nc2ccc3c(c2)CCN(C2CCCC2)CCC3)nn1-c1nc2ccccc2s1", "note": "[Compound 33, 1-(benzo[d]thiazol-2-yl)-N^3-(3-cyclopentyl-1,2,3,4,5,6-hexahydrobenzo[d]azocin-9-yl)-1H-1,2,4-triazole-3,5-diamine]", "values": [
      {"measurement": "IC50", "value": "< 1000", "unit": "nM"}
    ]},
    {"compound": "Cc1csc2c(-n3nc(Nc4cnc5c(c4)CCC(=O)CCC5)nc3N)nc(Cl)nc12", "note": "[Compound 34, 1-(2-chloro-7-methylthieno[3,2-d]pyrimidin-4-yl)-N^3-(7-oxo-5,6,8,9,10-pentahydrocycloocta[b]pyridin-3-yl)-1H-1,2,4-triazole-3,5-diamine]", "values": [
      {"measurement": "IC50", "value": "< 1000", "unit": "nM"}
    ]},
    {"compound": "Nc1nc(Nc2ccc(N3CCC(N4CCCC4)CC3)c(F)c2)nn1-c1ncnc2c1CCCCCC2", "note": "[Compound 35, N^3-(3-fluoro-4-(4-(pyrrolidin-1-yl)piperidin-1-yl)phenyl)-1-(5,6,7,8,9,10-hexahydrocycloocta[d]pyrimidin-4-yl)-1H-1,2,4-triazole-3,5-diamine]", "values": [
      {"measurement": "IC50", "value": "< 1000", "unit": "nM"}
    ]},
    {"compound": "Nc1nc(Nc2ccc(N3CC(N4CCCC4)C3)c(F)c2)nn1-c1ncnc2c1CCCCCC2", "note": "[Compound 36, N^3-(3-fluoro-4-(3-(pyrrolidin-1-yl)azetidin-1-yl)phenyl)-1-(5,6,7,8,9,10-hexahydrocycloocta[d]pyrimidin-4-yl)-1H-1,2,4-triazole-3,5-diamine]", "values": [
      {"measurement": "IC50", "value": "< 1000", "unit": "nM"}
    ]},
    {"compound": "Cc1csc2c(-n3nc(Nc4cnc5c(c4)CCC(N4CCCC4)CCC5)nc3N)nc(Cl)nc12", "note": "(stereo not drawn) [Compound 37, 1-(2-chloro-7-methylthieno[3,2-d]pyrimidin-4-yl)-N^3-(7-(pyrrolidin-1-yl)-5,6,7,8,9,10-hexahydrocycloocta[b]pyridin-3-yl)-1H-1,2,4-triazole-3,5-diamine]", "values": [
      {"measurement": "IC50", "value": "< 1000", "unit": "nM"}
    ]}
  ]
}
